According to patent publication US20250345351A1, “OLIGOSACCHARIDE COMPOSITIONS AND METHODS OF USE” (DSM NUTRITIONAL PRODUCTS, LLC, priority 2020, published 2025):

Key:
[1] = tested on: fecal samples from ten healthy subjects; assay: Ex vivo fermentation of the selected oligosaccharide composition in the presence of mesalamine: SCFA by GC-FID (Example 23); assay type: cell-based, human; settings: 0.5, 2, 8, 32, 125, or 500 μM mesalamine with the composition
Description: 5-aminosalicilic acids (5-ASA), such as mesalamine, are standard-of-care compounds for the treatment of patients with mild-to-moderate ulcerative colitis. The ability of the selected oligosaccharide composition to support the growth of microbial taxa in the presence of […] determined. Fecal samples from ten healthy subjects were incubated anaerobically in supplemented Clostridium minimal medium without (negative control) or with the selected oligosaccharide composition. Samples with the selected oligosaccharide composition were also incubated with 0.0, 0.5, 2, 8, 32, 125, or 500 μM mesalamine. Each fecal sample incubation was performed with three biological replicates. After incubation, samples were sedimented by centrifugation and culture supernatants were collected for SCFA quantification by GC-FID.

[2] = tested on: fecal microbiome of healthy subjects; assay: Ex vivo fermentation in the presence of mesalamine: 16S rRNA amplicon sequencing, Bray-Curtis dissimilarity (Example 23); assay type: cell-based, human; settings: all 5-ASA concentrations tested; replicate sequencing dissimilarity 0.06 (S.D. 0.03)
Description: 5-aminosalicilic acids (5-ASA), such as mesalamine, are standard-of-care compounds for the treatment of patients with mild-to-moderate ulcerative colitis. The ability of the selected oligosaccharide composition to support the growth of microbial taxa in the presence of mesaline was determined. Fecal samples from ten healthy subjects were incubated anaerobically in supplemented Clostridium minimal medium without (negative control) or with the selected oligosaccharide composition. Samples with the selected oligosaccharide composition were also incubated with 0.0, 0.5, 2, 8, 32, 125, or 500 μM mesalamine. Each fecal sample incubation was performed with three biological replicates. After incubation, samples were sedimented by centrifugation and culture supernatants were collected for SCFA quantification by GC-FID.
To understand if mesalamine influenced understand the shifts in taxonomic composition produced by incubation with the selected oligosaccharide composition, the fecal samples were characterized by 16S rRNA amplicon seuquencing. Genomic DNA was extracted from fecal samples using DNeasy PowerSoil extraction plates (Qiagen) and quantified using the Quant-iT PicoGreen dsDNA assay (Invitrogen). 16S rRNA libraries were prepared by PCR amplification with the 515F/806R primer set before sequencing on the Illumina NextSeq platform to at least 25 thousand reads. […]

**Q.** With `Nc1ccc(O)c(C(=O)O)c1` [mesalamine] as the compound, how does the “effect on SCFA production by the selected oligosaccharide composition” value [1] read?
**A.** none of the samples incubated with mesalamine showed any significant differences in SCFA production

**Q.** What about the “mean Bray-Curtis dissimilarity to samples incubated with the composition and without mesalamine” value [2] of the same compound?
**A.** 0.06 (S.D. 0.02)
